Results as given in US10899759B2, “Positive allosteric modulators of the muscarinic acetylcholine receptor M1” (Vanderbilt University, priority 2016, dated 2021).
Where two headings read alike, the source gives them in different places.

Target: T1, human mAChR M1 (Homo sapiens, UniProt P11229)
T1 construct: host or cells: CHO-K1
T1 sequence (P11229 1-460): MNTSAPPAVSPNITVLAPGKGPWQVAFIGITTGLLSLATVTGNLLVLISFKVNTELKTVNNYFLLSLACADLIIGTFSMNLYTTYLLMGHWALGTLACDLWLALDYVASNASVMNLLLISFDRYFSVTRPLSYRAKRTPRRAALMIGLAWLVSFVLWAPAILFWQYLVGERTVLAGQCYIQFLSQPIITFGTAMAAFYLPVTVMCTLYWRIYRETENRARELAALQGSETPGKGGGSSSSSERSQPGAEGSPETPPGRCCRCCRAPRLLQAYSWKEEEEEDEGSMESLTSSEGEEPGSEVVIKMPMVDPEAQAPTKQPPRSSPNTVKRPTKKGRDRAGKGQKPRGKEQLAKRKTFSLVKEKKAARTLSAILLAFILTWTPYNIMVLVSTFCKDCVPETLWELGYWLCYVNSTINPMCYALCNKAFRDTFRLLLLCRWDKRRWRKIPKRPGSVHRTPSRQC
Assay: mAChR M1 cell-based functional assay (calcium mobilization, Fluo-4, FDSS)
Details: for EC50: positive allosteric modulator activity as increase in the EC20 acetylcholine response
Method: Chinese hamster ovary (CHO-K1) cells stably expressing rat (r)M1 were purchased from the American Type Culture Collection and cultured according to their indicated protocol. […] To make stable rM2, hM2, rM3, hM4, and rM4 cell lines for use in calcium mobilization assays, these cells also were stably transfected with a chimeric G-protein (Gqi5) (provided by B. R. Conklin, University of California, San Francisco) using Lipofectamine 2000. rM1, hM1, rM3, hM3, rM5, and hM5 cells were grown in Ham's F-12 medium containing 10% heat-inactivated fetal bovine serum (FBS), 20 mM HEPES, and 50 μg/mL G418 sulfate. rM2-Gqi5, hM2-Gqi5, and hM4-Gqi5 cells were grown in the same medium also containing 500 μg/mL Hygromycin B. Stable rM4-Gqi5 cells were grown in DMEM containing 10% heat-inactivated FBS, 20 mM HEPES, 400 μg/mL G418 sulfate, and 500 μg/mL Hygromycin B.
For high throughput measurement of agonist-evoked increases in intracellular calcium, CHO-K1 cells stably expressing muscarinic receptors were plated in growth medium lacking G418 and hygromycin at 15,000 cells/20 μL/well in Greiner 384-well black-walled, tissue culture (TC)-treated, clear-bottom plates (VWR). Cells were incubated overnight at 37° C. and 5% CO2. […] Compound master plates were formatted in an 11 point CRC format (1:3 dilutions) in 100% DMSO with a starting concentration of 10 mM using the BRAVO liquid handler (Agilent). Test compound CRCs were then transferred to daughter plates (240 nL) using the Echo acoustic plate reformatter (Labcyte, Sunnyvale, Calif.) and then diluted into assay buffer (40 μL) to a 2× stock using a Thermo Fisher Combi (Thermo Fisher Scientific, Waltham, Mass.).
Calcium flux was measured using the Functional Drug Screening System (FDSS) 6000 (Hamamatsu Corporation, Tokyo, Japan) as an increase in the fluorescent static ratio. Compounds were applied to cells (20 μL, 2×) using the automated system of the FDSS 6000 at 4 s into the 300 s protocol and the data were collected at 1 Hz. […] Agonist activity was analyzed as a concentration-dependent increase in calcium mobilization upon compound addition. Positive allosteric modulator activity was analyzed as a concentration-dependent increase in the EC20 acetylcholine response. Antagonist activity was analyzed as a concentration-dependent decrease in the EC80 acetylcholine response. Concentration-response curves were generated using a four-parameter logistical equation in XLfit curve fitting software (IDBS, Bridgewater, N.J.) for Excel (Microsoft, Redmond, Wash.) or Prism (GraphPad Software, Inc., San Diego, Calif.).
The compound numbers correspond to the compound numbers used in Table 1.

[1] = CHO-K1 cells stably expressing hM1, EC20 acetylcholine response, read-out: Human M1 Emax
[2] = CHO-K1 cells stably expressing hM1

SMILES | Emax [1] | EC50 [2] | Emax (CHO-K1, read-out: Human M1 Emax)
Cc1nc(-c2ccc(Cc3cc(C(=O)NC4(C)COC4)nc4sccc34)cc2)co1 [Compound 140, 4-[[4-(2-methyloxazol-4-yl)phenyl]methyl]-N-(3-methyloxetan-3-yl)thieno[2,3-b]pyridine-6-carboxamide] | 59.2% | 240 nM | 
Cn1ncc2c(Cc3ccc(-c4cscn4)cc3)cc(C(=O)NCC3CCOCC3)nc21 [Compound 29, 1-methyl-N-(tetrahydropyran-4-ylmethyl)-4-[(4-thiazol-4-ylphenyl)methyl]pyrazolo[3,4-b]pyridine-6-carboxamide] | 48.1% | 1610 nM | 
Cn1ccc(-c2ccc(Cc3cc(C(=O)NC4CCOCC4(C)C)nc4sccc34)cc2)n1 (centres unmarked) [Compound 92, N-(3,3-dimethyltetrahydropyran-4-yl)-4-[[4-(1-methylpyrazol-3-yl)phenyl]methyl]thieno[2,3-b]pyridine-6-carboxamide] | 61.6% | 1180 nM | 
Cc1nc(-c2ccc(Cc3cc(C(=O)NC4CCOC(C)(C)C4)nc4sccc34)cc2)co1 (centres unmarked) [Compound 131, N-(2,2-dimethyltetrahydropyran-4-yl)-4-[[4-(2-methyloxazol-4-yl)phenyl]methyl]thieno[2,3-b]pyridine-6-carboxamide] | 33.3% |  | 
Cn1cc(-c2ccc(Cc3cc(C(=O)NC4CC(F)(F)C4)nc4sccc34)cn2)cn1 [Compound 126, N-(3,3-difluorocyclobutyl)-4-[[6-(1-methylpyrazol-4-yl)-3-pyridyl]methyl]thieno[2,3-b]pyridine-6-carboxamide] | 63.4% | 270 nM | 
COCCNC(=O)c1cc(Cc2ccc(-c3cnn(C)c3)nc2)c2ccsc2n1 [Compound 127, N-(2-methoxyethyl)-4-[[6-(1-methylpyrazol-4-yl)-3-pyridyl]methyl]thieno[2,3-b]pyridine-6-carboxamide] | 63.8% | 270 nM | 
Cn1cc(-c2ccc(Cc3cc(C(=O)N[C@H]4CCOC4)nc4sccc34)cn2)cn1 [Compound 120, 4-[[6-(1-methylpyrazol-4-yl)-3-pyridyl]methyl]-N-[(3S)-tetrahydrofuran-3-yl]thieno[2,3-b]pyridine-6-carboxamide] | 56.9% | 80 nM | 
Cn1ccc2c(Cc3ccc(-c4cscn4)cc3)cc(C(=O)N[C@H]3CC[C@@H]3O)nc21 [Compound 3, N-[(1S,2S)-2-hydroxycyclobutyl]-1-methyl-4-[(4-thiazol-4-ylphenyl)methyl]pyrrolo[2,3-b]pyridine-6-carboxamide] |  | 360 nM | 70.4%
Cn1ccc(-c2ccc(Cc3cc(C(=O)NCC4CCOC4)nc4sccc34)cn2)n1 (centres unmarked) [Compound 108, 4-[[6-(1-methylpyrazol-3-yl)-3-pyridyl]methyl]-N-(tetrahydrofuran-3-ylmethyl)thieno[2,3-b]pyridine-6-carboxamide] | 59.4% | 150 nM | 
COCC(C)NC(=O)c1cc(Cc2ccc(-c3ccn(C)n3)nc2)c2ccsc2n1 (centres unmarked) [Compound 112, N-(2-methoxy-1-methyl-ethyl)-4-[[6-(1-methylpyrazol-3-yl)-3-pyridyl]methyl]thieno[2,3-b]pyridine-6-carboxamide] | 59.5% | 390 nM | 
Cc1nc(-c2ccc(Cc3cc(C(=O)N[C@H]4CCOC4)nc4sccc34)cc2)co1 [Compound 136, 4-[[4-(2-methyloxazol-4-yl)phenyl]methyl]-N-[(3S)-tetrahydrofuran-3-yl]thieno[2,3-b]pyridine-6-carboxamide] | 60.6% | 620 nM | 
CC1COCCC1NC(=O)c1cc(Cc2ccc(-c3cnn(C)c3)nc2)c2ccsc2n1 (centres unmarked) [Compound 118, 4-[[6-(1-methylpyrazol-4-yl)-3-pyridyl]methyl]-N-(3-methyltetrahydropyran-4-yl)thieno[2,3-b]pyridine-6-carboxamide] | 52.2% | 70 nM | 
C[C@@H]1CC(NC(=O)c2cc(Cc3ccc(-c4nccs4)cc3)c3ccn(C)c3n2)C[C@H](C)O1 (stereo partly drawn) [Compound 65, N-[(2S,6R)-2,6-dimethyltetrahydropyran-4-yl]-1-methyl-4-[(4-thiazol-2-ylphenyl)methyl]pyrrolo[2,3-b]pyridine-6-carboxamide] | 58.6% | 2780 nM | 

Now from value to compound, other results behind:

Emax [1] | EC50 [2] | SMILES | Emax (CHO-K1, read-out: Human M1 Emax)
67.9% | 5940 nM | Cn1ncc2c(Cc3ccc(-n4cccn4)cc3)cc(C(=O)NC3CCOCC3)nc21 [Compound 5, 1-methyl-4-[(4-pyrazol-1-ylphenyl)methyl]-N-tetrahydropyran-4-yl-pyrazolo[3,4-b]pyridine-6-carboxamide] | 
52.9% | 30 nM | O=C(N[C@H]1CCCC[C@@H]1O)c1cc(Cc2ccc(-n3cccn3)cc2)c2ccsc2n1 [Compound 69, N-[(1S,2S)-2-hydroxycyclohexyl]-4-[(4-pyrazol-1-ylphenyl)methyl]thieno[2,3-b]pyridine-6-carboxamide] | 
68.8% | 420 nM | O=C(NCC1CCOCC1)c1cc(Cc2ccc(-n3cccn3)cc2)c2ccsc2n1 [Compound 76, 4-[(4-pyrazol-1-ylphenyl)methyl]-N-(tetrahydropyran-4-ylmethyl)thieno[2,3-b]pyridine-6-carboxamide] | 
47.8% | 10 nM | O=C(N[C@H]1CCOC[C@@H]1O)c1cc(Cc2ccc(-n3cccn3)cc2)c2ccsc2n1 [Compound 70] | 
74.8% | 1770 nM | O=C(NC1CC(F)(F)C1)c1cc(Cc2ccc(-n3cccn3)cc2)c2ccsc2n1 [Compound 83, N-(3,3-difluorocyclobutyl)-4-[(4-pyrazol-1-ylphenyl)methyl]thieno[2,3-b]pyridine-6-carboxamide] | 
40.2% | 1230 nM | Cn1ccc2c(Cc3ccc(-c4cscn4)cc3)cc(C(=O)NC3COC3)nc21 [Compound 35, 1-methyl-N-(oxetan-3-yl)-4-[(4-thiazol-4-ylphenyl)methyl]pyrrolo[2,3-b]pyridine-6-carboxamide] | 
59.6% | 1650 nM | Cn1ccc2c(Cc3ccc(-c4nccs4)cc3)cc(C(=O)NC3CCOC(C)(C)C3)nc21 (centres unmarked) [Compound 66, N-(2,2-dimethyltetrahydropyran-4-yl)-1-methyl-4-[(4-thiazol-2-ylphenyl)methyl]pyrrolo[2,3-b]pyridine-6-carboxamide] | 
73.1% | 180 nM | Cn1ccc2c(Cc3ccc(-n4cccn4)cc3)cc(C(=O)NC3CCOCC3)nc21 [Compound 18, 1-methyl-4-[(4-pyrazol-1-ylphenyl)methyl]-N-tetrahydropyran-4-yl-pyrrolo[2,3-b]pyridine-6-carboxamide] | 
78.6% | 130 nM | Cn1ccc(-c2ccc(Cc3cc(C(=O)N[C@H]4CCCC[C@@H]4O)nc4c3ccn4C)cc2)n1 [Compound 38, N-[(1S,2S)-2-hydroxycyclohexyl]-1-methyl-4-[[4-(1-methylpyrazol-3-yl)phenyl]methyl]pyrrolo[2,3-b]pyridine-6-carboxamide] | 
69.6% | 390 nM | O=C(N[C@H]1CCOC1)c1cc(Cc2ccc(-n3cccn3)cc2)c2ccsc2n1 [Compound 77, 4-[(4-pyrazol-1-ylphenyl)methyl]-N-[(3S)-tetrahydrofuran-3-yl]thieno[2,3-b]pyridine-6-carboxamide] | 
57.2% | 33600 nM | Cn1ccc2c(Cc3ccc(-c4nccs4)cc3)cc(C(=O)N[C@H]3CCC[C@@H]3O)nc21 [Compound 64, N-[(1S,2S)-2-hydroxycyclopentyl]-1-methyl-4-[(4-thiazol-2-ylphenyl)methyl]pyrrolo[2,3-b]pyridine-6-carboxamide] | 
